Like-named read-outs stand apart in the source and are kept apart here.
How the values were obtained:
[1] = test system: ventricular myocyte; conditions: cited from earlier work
[2] = test system: atrial myocyte; conditions: cited from earlier work
[3] = test system: “CD151-low” cell subpopulation obtained under conditions for differentiation into atrial myocytes; assay: Membrane potential analysis (FluoVolt dye) of response to atrial myocyte-specific channel inhibitor or activator, CD151-low cells; assay type: cell-based, human; conditions: 3 Hz pacing
Protocol: (§1) The “CD151-high” cell subpopulation was obtained under conditions for differentiation into ventricular myocytes and the “CD151-low” cell subpopulation was obtained under conditions for differentiation into atrial myocytes in Test Example 2. Then, their response to an atrial […] channel inhibitor 4-aminopyridine or activator carbachol was analyzed.
(§2) Each cell subpopulation was seeded at 5×10^4 cells/5 μL and cultured on a glass-bottom dish coated with fibronectin. StemPro-34 SFM containing 1% L-glutamine, 150 μg/mL transferrin, 50 μg/mL ascorbic acid, 4×10^−4 M monothioglycerol, and 5 ng/ml VEGF was used. The culture medium was changed every 3 days, and the cells were cultured at 37° C. under regular oxygen conditions. The cells at culture days 6 to 10 were subjected to membrane potential analysis.
(§3) First, the culture medium was removed. Next, 0.2 μL of membrane potential sensitive dye (FluoVolt, ThermoFisher scientific, F10488) was added per 200 μL of Gey's balanced salt solution (Sigma). […] Each “CD151-high”-induced cell was analyzed under 1 Hz pacing, and each “CD151-low”-induced cell was analyzed under 3 Hz pacing.
(§4) An AquaCosmos2.6 (Hamamatsu Photonics K. K.) was used for the analysis. While each cell was irradiated with excitation light at 490 nm every 5.9 ms for 20 s, the fluorescence response was measured. […]

[4] = test system: “CD151-high” cell subpopulation obtained under conditions for differentiation into ventricular myocytes; assay: Membrane potential analysis (FluoVolt dye) of response to atrial myocyte-specific channel inhibitor or activator, CD151-high cells; assay type: cell-based, human; conditions: 1 Hz pacing
Protocol: as §1, §2, §3, §4

[5] = carbachol 10 μM final, 1 min after addition, FIG. 5(B)
[6] = 4-aminopyridine 50 μM final, 10 min after addition, FIG. 5(A)

| Compound | effect on APD ([1]; carbachol added to a cell) | effect on action potential duration (APD) ([2]; carbachol added to a cell, activator of muscarinic potassium channel (IK,Ach)) | effect on action potential duration (APD) [3, 5] | effect on action potential duration (APD) [4, 5] | effect on APD ([1]; 4-aminopyridine added to a cell) | effect on APD20 ([2]; 4-aminopyridine added to a cell, blocker of ultra-rapidly activating delayed rectifier potassium channel (IKur)) | effect on action potential duration (APD) [3, 6] | effect on action potential duration (APD) [4, 6] |
| --- | --- | --- | --- | --- | --- | --- | --- | --- |
| C[N+](C)(C)CCOC(N)=O [carbachol] | not affected | shortened only in the atrial myocyte | shorten the APD | no APD change | – | – | – | – |
| Nc1ccncc1 [4-aminopyridine] | – | – | – | – | not affected | prolonged only in the atrial myocyte | prolong the action potential duration (APD) | little APD extension |

— US12421497B2, “Method for enriching cardiac myocytes” (Orizuru Therapeutics, Inc., priority 2019, dated 2025)
